# Measurements from PubChem BioAssay AID274 (DTP/NCI, 2004).
# “And” between values parts separate entries of the source, which are not always exact repeats. Equal values may be shown once. Toxic doses and inconclusive results are not listed.
# Tested on: BDF1 mice, Lewis lung carcinoma iv, survival T/C
# Assay: NCI In Vivo Anticancer Drug Screen. Data for tumor model Lewis Lung Carcinoma (intravenous) in B6D2F1 (BDF1) mice
# Conditions: endpoint: median survival time, schedule: Q01DX009 (ip), higher = longer survival
# Procedure: The antitumor activity of compounds was measured in mice bearing transplantable tumors. Survival or tumor size were measured and the results are expressed as the measurement made in the treated group (T) divided by the measurement made in the vehicle treated control group (C). The tumor model used in this assay is Lewis Lung Carcinoma (intravenous) in B6D2F1 (BDF1) mice
# [1] = dose: 25.0 mg/kg/injection, vehicle: saline
# [2] = dose: 50.0 mg/kg/injection, vehicle: saline
# [3] = dose: 100.0 mg/kg/injection, vehicle: saline
# [4] = dose: 12.5 mg/kg/injection, vehicle: saline
smiles,measurement,setting,value
CN1CCN(c2ccc3nc(-c4ccc5nc(-c6ccc(O)cc6)[nH]c5c4)[nH]c3c2)CC1,T/C,"dose: 6.0 mg/kg/injection, vehicle: saline",95 % of control
same,T/C,"dose: 12.0 mg/kg/injection, vehicle: saline",98 % of control
same,T/C,[1],120 % of control
same,T/C,[2],102 % of control
same,T/C,[3],100 % of control
CC(C)([NH-])CO.CC(C)([NH-])CO.[Cl][Cd][Cl],T/C,"dose: 0.63 mg/kg/injection, vehicle: saline with Tween-80",97 % of control
same,T/C,"dose: 1.25 mg/kg/injection, vehicle: saline with Tween-80",88 % of control
same,T/C,"dose: 2.5 mg/kg/injection, vehicle: saline with Tween-80",99 % of control
OCCN1CCN(CC/C=C2/c3ccccc3Sc3ccc(Cl)cc32)CC1,T/C,"dose: 0.78 mg/kg/injection, vehicle: saline",102 % of control
same,T/C,"dose: 1.56 mg/kg/injection, vehicle: saline",111 % of control
same,T/C,"dose: 3.12 mg/kg/injection, vehicle: saline",98 % of control
same,T/C,"dose: 6.25 mg/kg/injection, vehicle: saline",101 % of control
same,T/C,[4],100 % of control
C[C@]12CC[C@H]3[C@@H](CC[C@]4(O)C[C@@H](O)CC[C@]34C=O)[C@@]1(O)CC[C@@H]2C1=CC(=O)OC1,T/C,[4],96 % of control
same,T/C,[1],108 % of control
same,T/C,[2],108 % of control
same,T/C,[3],100 % of control
CC(=O)O[C@@H]1C(=O)C=C(C)[C@@H]2[C@@H](OC(=O)C=C(C)C)[C@H]3OC(=O)C[C@H]4[C@@H](C)[C@@H](O)[C@]5(O)OC[C@]34[C@H]5[C@@]12C,T/C,"dose: 0.12 mg/kg/injection, vehicle: saline",107 % of control
same,T/C,"dose: 0.25 mg/kg/injection, vehicle: saline",106 % of control
same,T/C,"dose: 0.5 mg/kg/injection, vehicle: saline",102 % of control
same,T/C,"dose: 1.0 mg/kg/injection, vehicle: saline",107 % of control
CC1(C)COCN1COC1CCCCC1,T/C,[4],112 % of control and 118 % of control
same,T/C,[1],98 % of control and 111 % of control
same,T/C,[2],97 % of control and 115 % of control
same,T/C,[3],95 % of control and 99 % of control
Nc1ccnc(=O)[nH]1,T/C,"dose: 32.0 mg/kg/injection, vehicle: Klucel (hydroxypropylcellulose) (HPC)",111 % of control
same,T/C,"dose: 32.0 mg/kg/injection, vehicle: saline with Tween-80",103 % of control
same,T/C,"dose: 64.0 mg/kg/injection, vehicle: Klucel (hydroxypropylcellulose) (HPC)",98 % of control
same,T/C,"dose: 128.0 mg/kg/injection, vehicle: Klucel (hydroxypropylcellulose) (HPC)",95 % of control
same,T/C,"dose: 256.0 mg/kg/injection, vehicle: Klucel (hydroxypropylcellulose) (HPC)",102 % of control
same,T/C,"dose: 256.0 mg/kg/injection, vehicle: saline with Tween-80",119 % of control
same,T/C,"dose: 512.0 mg/kg/injection, vehicle: Klucel (hydroxypropylcellulose) (HPC)",86 % of control
same,T/C,"dose: 512.0 mg/kg/injection, vehicle: saline with Tween-80",107 % of control
Nc1ncn(C2OC(CO)C(O)C2O)c(=O)n1 (stereo not drawn),T/C,"dose: 0.37 mg/kg/injection, vehicle: saline",100 % of control
same,T/C,"dose: 0.75 mg/kg/injection, vehicle: saline",113 % of control and 119 % of control
same,T/C,"dose: 1.5 mg/kg/injection, vehicle: saline",109 % of control and 115 % of control
same,T/C,"dose: 12.5 mg/kg/injection, vehicle: suspension in saline",115 % of control
same,T/C,"dose: 25.0 mg/kg/injection, vehicle: suspension in saline",124 % of control
same,T/C,"dose: 400.0 mg/kg/injection, vehicle: suspension in saline",175 % of control
Cc1cc2cc3cc(C)c(N)cc3nc2cc1N,T/C,"dose: 3.12 mg/kg/injection, vehicle: saline with Tween-80",102 % of control
same,T/C,"dose: 6.25 mg/kg/injection, vehicle: saline with Tween-80",104 % of control
same,T/C,"dose: 12.5 mg/kg/injection, vehicle: saline with Tween-80",100 % of control
same,T/C,"dose: 25.0 mg/kg/injection, vehicle: saline with Tween-80",105 % of control
